Remaining binding data for 3 molecules are collected here from patent US11208412B2 (DAEGU-GYEONGBUK MEDICAL INNOVATION FOUNDATION, priority 2017, dated 2021).

Common to all, as to test: Kinase selectivity, DiscoverX scanMAX Kinase assay panel (% control)
Type in all cases: binding

The target in test [1] is T1, kinases of the scanMAX Kinase assay panel (Homo sapiens, UniProt Q07912).
T1 construct: purchased DiscoverX Co. (contract measurement) scanMAX Kinase assay panel
The conditions noted are these: kinase TNK2; 1 uM in DMSO. In short, it runs like this:
(§1)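 Percent of control computed as (compound − positive control)/(negative control − positive control) × 100, DMSO defining 100% and positive control 0%. Each panel kinase exposed to 1 uM compound; values under 35% taken to mean the compound acts on that kinase.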

Test [2] concerns the target T2, kinases of the scanMAX Kinase assay panel (Homo sapiens, UniProt P36888).
T2 construct: purchased DiscoverX Co. (contract measurement) scanMAX Kinase assay panel
T2 sequence (P36888 27-993): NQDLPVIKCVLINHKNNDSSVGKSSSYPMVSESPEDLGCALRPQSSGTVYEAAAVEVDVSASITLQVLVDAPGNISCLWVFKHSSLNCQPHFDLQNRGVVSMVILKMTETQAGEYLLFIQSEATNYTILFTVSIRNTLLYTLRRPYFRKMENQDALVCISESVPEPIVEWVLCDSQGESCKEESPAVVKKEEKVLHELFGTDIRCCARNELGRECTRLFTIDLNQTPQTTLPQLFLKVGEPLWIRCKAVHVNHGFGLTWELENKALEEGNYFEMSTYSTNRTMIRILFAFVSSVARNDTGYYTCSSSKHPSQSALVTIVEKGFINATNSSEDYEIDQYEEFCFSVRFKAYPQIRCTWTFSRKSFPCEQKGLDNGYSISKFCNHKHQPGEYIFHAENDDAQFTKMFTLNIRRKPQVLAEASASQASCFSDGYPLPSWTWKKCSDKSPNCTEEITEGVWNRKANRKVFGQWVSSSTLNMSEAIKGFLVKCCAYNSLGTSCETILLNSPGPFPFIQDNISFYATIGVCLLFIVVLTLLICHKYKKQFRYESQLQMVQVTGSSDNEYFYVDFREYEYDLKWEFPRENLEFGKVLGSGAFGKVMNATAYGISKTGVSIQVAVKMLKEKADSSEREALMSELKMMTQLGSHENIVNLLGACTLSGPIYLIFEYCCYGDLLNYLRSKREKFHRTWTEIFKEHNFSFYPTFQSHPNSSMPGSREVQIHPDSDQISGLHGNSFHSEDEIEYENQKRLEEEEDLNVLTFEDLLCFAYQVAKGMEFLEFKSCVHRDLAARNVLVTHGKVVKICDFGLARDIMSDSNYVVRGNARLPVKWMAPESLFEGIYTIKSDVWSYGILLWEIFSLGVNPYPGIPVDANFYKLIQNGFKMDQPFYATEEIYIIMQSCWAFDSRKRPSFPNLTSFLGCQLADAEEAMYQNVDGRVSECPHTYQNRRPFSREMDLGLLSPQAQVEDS
Conditions: 1 uM. In short, it runs like this:
as §1

Test [3] has as its target T3, kinases of the scanMAX Kinase assay panel (Homo sapiens, UniProt Q15303).
T3 construct: purchased DiscoverX Co. (contract measurement) scanMAX Kinase assay panel
Conditions: ERBB4; 1 uM. In short, it runs like this: as §1

The target in test [4] is T4, kinases of the scanMAX Kinase assay panel (Homo sapiens, UniProt O14578).
T4 construct: purchased DiscoverX Co. (contract measurement) scanMAX Kinase assay panel
Conditions: CIT; 1 uM. In short, it runs like this:
as §1

The target in test [5] is T5, kinases of the scanMAX Kinase assay panel (Homo sapiens, UniProt Q04759).
T5 construct: purchased DiscoverX Co. (contract measurement) scanMAX Kinase assay panel
T5 sequence (Q04759 whole entry): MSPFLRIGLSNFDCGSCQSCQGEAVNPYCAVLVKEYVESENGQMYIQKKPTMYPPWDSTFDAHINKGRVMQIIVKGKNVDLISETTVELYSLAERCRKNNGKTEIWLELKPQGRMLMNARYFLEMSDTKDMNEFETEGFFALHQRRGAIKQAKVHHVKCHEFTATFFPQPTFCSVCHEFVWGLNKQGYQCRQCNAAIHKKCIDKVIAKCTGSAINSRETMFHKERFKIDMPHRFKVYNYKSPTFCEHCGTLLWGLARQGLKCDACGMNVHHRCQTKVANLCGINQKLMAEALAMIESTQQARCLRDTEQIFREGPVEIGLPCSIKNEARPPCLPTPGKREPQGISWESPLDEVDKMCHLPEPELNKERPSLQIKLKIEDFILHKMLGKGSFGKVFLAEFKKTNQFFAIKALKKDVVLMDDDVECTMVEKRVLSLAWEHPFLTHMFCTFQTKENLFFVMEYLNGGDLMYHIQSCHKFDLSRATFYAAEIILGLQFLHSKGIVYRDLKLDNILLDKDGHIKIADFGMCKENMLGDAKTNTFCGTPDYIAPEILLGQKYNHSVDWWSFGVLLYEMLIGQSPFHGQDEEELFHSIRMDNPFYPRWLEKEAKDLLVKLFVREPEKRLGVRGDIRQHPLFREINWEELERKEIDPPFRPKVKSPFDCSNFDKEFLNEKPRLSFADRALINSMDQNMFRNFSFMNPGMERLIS
Conditions: PRKCQ; 1 uM. In short, it runs like this:
as §1

For test [6], the target named is T6, kinases of the scanMAX Kinase assay panel (Homo sapiens, UniProt O96017).
T6 construct: purchased DiscoverX Co. (contract measurement) scanMAX Kinase assay panel
T6 sequence (O96017 whole entry): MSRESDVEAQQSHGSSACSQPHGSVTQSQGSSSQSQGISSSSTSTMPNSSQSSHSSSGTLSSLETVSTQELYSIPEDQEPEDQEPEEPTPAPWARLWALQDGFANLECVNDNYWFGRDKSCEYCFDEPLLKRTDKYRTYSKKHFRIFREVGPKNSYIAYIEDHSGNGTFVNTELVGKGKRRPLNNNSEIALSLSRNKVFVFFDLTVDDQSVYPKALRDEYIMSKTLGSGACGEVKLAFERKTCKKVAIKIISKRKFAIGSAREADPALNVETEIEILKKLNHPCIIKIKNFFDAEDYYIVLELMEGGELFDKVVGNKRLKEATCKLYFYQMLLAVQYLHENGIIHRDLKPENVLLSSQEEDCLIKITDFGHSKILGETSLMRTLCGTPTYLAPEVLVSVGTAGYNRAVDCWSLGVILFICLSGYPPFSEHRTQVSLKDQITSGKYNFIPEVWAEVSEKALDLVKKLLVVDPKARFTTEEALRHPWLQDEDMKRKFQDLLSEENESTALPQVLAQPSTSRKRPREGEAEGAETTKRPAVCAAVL
The conditions noted are these: CHEK2; 1 uM. In short, it runs like this:
as §1

Test [7] has as its target T7, kinases of the scanMAX Kinase assay panel (Homo sapiens, UniProt Q32MK0).
T7 construct: purchased DiscoverX Co. (contract measurement) scanMAX Kinase assay panel
T7 sequence (Q32MK0 1-819): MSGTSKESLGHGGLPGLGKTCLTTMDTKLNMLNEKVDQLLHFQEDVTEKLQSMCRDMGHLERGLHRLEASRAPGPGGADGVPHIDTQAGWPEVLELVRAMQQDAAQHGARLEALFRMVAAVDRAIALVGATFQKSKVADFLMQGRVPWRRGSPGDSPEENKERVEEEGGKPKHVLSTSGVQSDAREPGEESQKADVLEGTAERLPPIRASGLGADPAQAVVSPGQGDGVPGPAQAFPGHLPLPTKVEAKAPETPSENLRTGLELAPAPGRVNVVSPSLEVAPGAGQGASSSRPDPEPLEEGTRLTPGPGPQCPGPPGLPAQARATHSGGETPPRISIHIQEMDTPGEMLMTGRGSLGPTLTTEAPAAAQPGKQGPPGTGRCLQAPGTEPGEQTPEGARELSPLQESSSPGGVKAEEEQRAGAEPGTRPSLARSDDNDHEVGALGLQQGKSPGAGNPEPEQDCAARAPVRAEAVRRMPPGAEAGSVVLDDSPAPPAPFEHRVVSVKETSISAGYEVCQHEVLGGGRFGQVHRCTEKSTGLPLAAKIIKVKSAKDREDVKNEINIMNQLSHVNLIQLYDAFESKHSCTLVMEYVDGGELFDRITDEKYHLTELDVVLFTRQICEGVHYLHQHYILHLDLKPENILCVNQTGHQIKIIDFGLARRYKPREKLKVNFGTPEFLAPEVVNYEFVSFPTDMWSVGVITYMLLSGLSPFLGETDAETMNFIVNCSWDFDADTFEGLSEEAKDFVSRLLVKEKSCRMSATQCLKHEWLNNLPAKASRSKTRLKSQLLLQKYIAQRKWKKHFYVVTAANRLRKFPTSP
The conditions noted are these: MLCK; 1 uM. In short, it runs like this:
as §1

For test [8], the target named is T8, kinases of the scanMAX Kinase assay panel (Homo sapiens, UniProt Q9Y5S2).
T8 construct: purchased DiscoverX Co. (contract measurement) scanMAX Kinase assay panel
T8 sequence (Q9Y5S2 whole entry): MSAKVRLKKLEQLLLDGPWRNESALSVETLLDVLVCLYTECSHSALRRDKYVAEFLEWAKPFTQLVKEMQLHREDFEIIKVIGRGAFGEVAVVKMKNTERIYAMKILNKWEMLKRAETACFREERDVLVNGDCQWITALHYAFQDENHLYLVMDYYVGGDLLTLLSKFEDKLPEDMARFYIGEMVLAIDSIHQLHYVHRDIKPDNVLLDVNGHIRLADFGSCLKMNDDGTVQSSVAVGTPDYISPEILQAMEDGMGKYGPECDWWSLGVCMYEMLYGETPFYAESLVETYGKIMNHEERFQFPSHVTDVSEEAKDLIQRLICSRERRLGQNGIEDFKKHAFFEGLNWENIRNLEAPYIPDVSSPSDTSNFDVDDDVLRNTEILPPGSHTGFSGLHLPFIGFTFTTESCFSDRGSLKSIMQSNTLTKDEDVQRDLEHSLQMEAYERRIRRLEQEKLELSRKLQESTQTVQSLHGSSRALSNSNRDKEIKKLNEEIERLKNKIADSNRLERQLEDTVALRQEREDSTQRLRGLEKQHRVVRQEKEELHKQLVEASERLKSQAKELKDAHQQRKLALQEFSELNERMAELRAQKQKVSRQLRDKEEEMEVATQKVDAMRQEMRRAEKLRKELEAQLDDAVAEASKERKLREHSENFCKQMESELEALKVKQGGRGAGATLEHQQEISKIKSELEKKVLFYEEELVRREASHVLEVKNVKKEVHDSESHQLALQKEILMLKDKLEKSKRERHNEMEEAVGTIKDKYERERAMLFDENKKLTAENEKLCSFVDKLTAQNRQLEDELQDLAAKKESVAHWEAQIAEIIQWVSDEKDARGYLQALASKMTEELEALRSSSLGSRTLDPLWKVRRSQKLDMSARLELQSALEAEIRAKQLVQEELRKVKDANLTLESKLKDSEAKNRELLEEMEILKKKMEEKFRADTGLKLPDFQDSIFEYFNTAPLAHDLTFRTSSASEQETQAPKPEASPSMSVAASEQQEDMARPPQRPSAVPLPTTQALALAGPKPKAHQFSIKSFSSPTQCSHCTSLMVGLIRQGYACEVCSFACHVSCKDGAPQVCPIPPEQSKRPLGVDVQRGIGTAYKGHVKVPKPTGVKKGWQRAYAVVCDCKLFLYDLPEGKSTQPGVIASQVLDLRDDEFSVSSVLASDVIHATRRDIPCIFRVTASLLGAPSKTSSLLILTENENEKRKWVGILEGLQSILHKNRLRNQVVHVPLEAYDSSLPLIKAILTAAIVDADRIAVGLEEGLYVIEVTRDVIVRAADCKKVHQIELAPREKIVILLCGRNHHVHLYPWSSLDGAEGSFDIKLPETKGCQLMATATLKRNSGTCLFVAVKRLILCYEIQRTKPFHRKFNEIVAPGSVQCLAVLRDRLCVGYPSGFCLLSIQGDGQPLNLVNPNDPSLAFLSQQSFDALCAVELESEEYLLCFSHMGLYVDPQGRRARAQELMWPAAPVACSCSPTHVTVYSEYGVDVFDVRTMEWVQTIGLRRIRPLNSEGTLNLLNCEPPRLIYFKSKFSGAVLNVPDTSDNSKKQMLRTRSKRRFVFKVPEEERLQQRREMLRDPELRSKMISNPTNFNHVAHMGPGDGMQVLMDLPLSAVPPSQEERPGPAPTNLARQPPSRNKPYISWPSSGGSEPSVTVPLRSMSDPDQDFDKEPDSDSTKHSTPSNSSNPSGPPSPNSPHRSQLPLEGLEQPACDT
Conditions: MRCKB; 1 uM. In short, it runs like this: as §1

T3 sequence (Q15303 26-1308): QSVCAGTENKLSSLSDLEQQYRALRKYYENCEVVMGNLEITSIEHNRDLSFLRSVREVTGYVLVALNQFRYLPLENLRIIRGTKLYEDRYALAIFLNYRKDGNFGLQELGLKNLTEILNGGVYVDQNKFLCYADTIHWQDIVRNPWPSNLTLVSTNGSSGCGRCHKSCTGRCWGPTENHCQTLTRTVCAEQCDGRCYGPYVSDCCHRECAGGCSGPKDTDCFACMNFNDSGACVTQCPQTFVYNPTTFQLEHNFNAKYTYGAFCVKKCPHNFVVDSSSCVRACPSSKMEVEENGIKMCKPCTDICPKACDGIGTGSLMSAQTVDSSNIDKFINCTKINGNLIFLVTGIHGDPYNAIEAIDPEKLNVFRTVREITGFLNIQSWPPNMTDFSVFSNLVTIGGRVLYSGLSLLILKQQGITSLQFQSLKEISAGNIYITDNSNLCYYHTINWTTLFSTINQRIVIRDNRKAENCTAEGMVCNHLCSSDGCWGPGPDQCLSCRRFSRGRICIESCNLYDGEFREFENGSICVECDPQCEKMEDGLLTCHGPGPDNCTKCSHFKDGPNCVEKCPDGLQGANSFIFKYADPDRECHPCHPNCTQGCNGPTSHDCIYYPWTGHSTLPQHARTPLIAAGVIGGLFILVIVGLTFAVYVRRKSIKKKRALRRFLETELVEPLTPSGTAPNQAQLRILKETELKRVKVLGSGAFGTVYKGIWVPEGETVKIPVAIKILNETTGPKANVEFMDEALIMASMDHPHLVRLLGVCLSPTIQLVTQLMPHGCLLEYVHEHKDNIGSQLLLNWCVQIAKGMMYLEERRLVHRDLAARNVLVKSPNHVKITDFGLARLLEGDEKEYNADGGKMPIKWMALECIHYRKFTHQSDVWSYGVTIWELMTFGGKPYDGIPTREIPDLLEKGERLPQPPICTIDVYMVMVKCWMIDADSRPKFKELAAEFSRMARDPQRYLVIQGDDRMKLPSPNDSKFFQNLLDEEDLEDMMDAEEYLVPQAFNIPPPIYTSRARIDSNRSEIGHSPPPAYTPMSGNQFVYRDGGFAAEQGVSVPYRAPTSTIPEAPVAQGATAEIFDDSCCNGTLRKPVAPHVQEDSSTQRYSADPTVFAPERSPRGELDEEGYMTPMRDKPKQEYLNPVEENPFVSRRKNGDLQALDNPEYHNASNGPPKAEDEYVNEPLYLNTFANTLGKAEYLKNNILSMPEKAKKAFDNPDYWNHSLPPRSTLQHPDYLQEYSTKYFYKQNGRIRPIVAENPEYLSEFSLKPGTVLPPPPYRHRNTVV

`CNc1nc(Nc2ccc(C(=O)N3CCOCC3)cc2OC)nc2[nH]cc(C#N)c12` [Example 1, 2-((2-methoxy-4-(morpholine-4-carbonyl)phenyl)amino)-4-(methylamino)-7H-pyrrolo[2,3-d]pyrimidine-5-carbonitrile]: the remaining binding at 1 µM in test [1] was 82%; in test [2] (FLT3-autoinhibited) it was 45%; in test [2] (FLT3), 86%; in test [3], 99%; in test [4] it was 86%; in test [5], 95%. For the same molecule, the remaining binding at 1 µM was 7.7% in test [6], 96% in test [7] and 100% in test [8].
`CC1(Nc2nc(Nc3cnn([C@H]4CCN(C5COC5)C[C@@H]4F)c3Cl)nc3[nH]cc(C#N)c23)CC1` [Example 52, 2-((5-chloro-1-((3S,4S)-3-fluoro-1-(oxetane-3-yl)piperidine-4-yl)-1H-pyrazole-4-yl)amino)((1-methylcyclopropyl)amino)-7H-pyrrolo[2,3-d]pyrimidine-5-carbonitrile]: the remaining binding at 1 µM in test [1] came out at 0.9%; in test [2] (FLT3-autoinhibited) it was 0.3%; in test [2] (FLT3), 0.05%; in test [3], 45%; in test [4] it was 76%; in test [5], 47%. The remaining binding at 1 µM in test [6] was determined as 0%; in test [7] it was 9%; in test [8], 89%.
Regarding `CCNc1nc(Nc2ccc(C(=O)N3CCC(N4CCOCC4)CC3)cc2OC)nc2[nH]cc(C(F)(F)F)c12` [Example 104, (4-((4-(ethylamino)-5-(trifluoromethyl)-7H-pyrrolo[2,3-d]pyrimidine-2-yl)amino)-3-methoxyphenyl)(4-morpholinopiperidine-1-yl)methanone], the remaining binding at 1 µM is 31% in test [1]; 76% in test [2] (FLT3-autoinhibited); 65% in test [2] (FLT3); 100% in test [3]; 100% in test [4]; 100% in test [5]. Further, the remaining binding at 1 µM in test [6] was 12%; in test [7], 92%; in test [8] it was 100%.
